Experiment [1] concerns C. albicans E81022 strain. Description: Experimental systemic candidal infection model in mice. Format: in vivo. The following applies: peroral, 3 times every 4 hours, female ICR mice, observed until 14 days after infection. A digest of the protocol:
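Female ICR mice (4.5–5.5 weeks) inoculated via tail vein with 4×10^6 cells/mouse from 48 h SDA culture at 30 °C. Compound at 2.5 or 10 mg/kg given perorally (saline with 6.5% DMSO, 3.5% Tween 80) from 0.5–1 h post-infection, 3 times every 4 h; n=5. Mean survival days over 14 days.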

Experiment [2] relates to A. fumigatus Tsukuba strain. The experiment in a line: Anti-Aspergillus activity, MIC measurement. Format: cell-based. To be noted: RPMI1640, 42-48 hours at 35° C., visual inspection, read-out: Anti-Aspergillus Activity (minimum inhibitory concentration, MIC). A digest of the protocol:
(§1)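 C. albicans CAF2-1 was grown 48 h at 30° C. in SDB and diluted in RPMI1640 to 1.2×10^3 cells/mL. Frozen A. fumigatus Tsukuba was diluted to 4.5×10^3 cells/mL. Compounds, two-fold serially diluted in DMSO from 2.5 mg/mL, were cultured aerobically with fungi for 42-48 h at 35° C.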

In experiment [3] the test system is C. albicans CAF2-1 strain. Description: Anti-Candida activity, MIC measurement. The class given is cell-based. To be noted: CAF21STRAIN, C. albicans CAF2-1, RPMI1640, 42-48 hours at 35° C., visual inspection, read-out: Anti-Candida Activity (minimum inhibitory concentration, MIC). The method, boiled down:
as §1

In brackets after ≈: the same amount, converted by molar mass.

For `Cc1cccc(OCc2ccc(Cc3cc(-c4ccc(N)nc4N)on3)cc2)n1` [Example 15, 3-(3-(4-(6-Methyl-pyridin-2-yloxymethyl)-benzyl)-isoxazol-5-yl)-pyridin-2,6-diamine], the entries for the “Mean Survival Days” value in experiment [1] (2.5 mg/kg) and in experiment [1] (10 mg/kg) were 10.8 days and 12.6 days, respectively. The MIC worked out at 0.39 mg/L (≈ 1.01 µM) in experiment [2] and 0.2 mg/L (≈ 0.516 µM) in experiment [3].

Turning to `Cc1ccnc(COc2ccc(Cc3cc(-c4cccnc4N)on3)cc2)c1` [Example 11, 3-(3-(4-(4-Methyl-pyridin-2-ylmethoxy)-benzyl)-isoxazol-5-yl)-pyridin-2-ylamine], the “Mean Survival Days” value came to 8.2 days in experiment [1] (2.5 mg/kg) and 13.6 days in experiment [1] (10 mg/kg). Moreover, the figures for the MIC in experiment [2] and in experiment [3] were 0.39 mg/L (≈ 1.05 µM) and 0.1 mg/L (≈ 0.269 µM), respectively.

For the molecule `Nc1ccc(-c2cc(Cc3ccc(OCc4cccc(Cl)n4)cc3)no2)c(N)n1` [Example 110, 3-(3-(4-(6-Chloro-pyridin-2-ylmethoxy)-benzyl)-isoxazol-5-yl)-pyridin-2,6-diamine], the “Mean Survival Days” value in experiment [1] (2.5 mg/kg) turned out to be 12.0 days. Further, the MIC in experiment [2] and in experiment [3] was 0.78 mg/L (≈ 1.91 µM) in each case.

On to `Nc1ccc(-c2cc(Cc3ccc(OCc4ccc(F)cn4)cc3)no2)c(N)n1` [Example 112, 3-(3-(4-(5-Fluoro-pyridin-2-ylmethoxy)-benzyl)-isoxazol-5-yl)-pyridin-2,6-diamine], for which the “Mean Survival Days” value in experiment [1] (10 mg/kg) was 12.2 days. Moreover, the figures for the MIC in experiment [2] and in experiment [3] were 0.39 mg/L (≈ 0.996 µM) and 0.78 mg/L (≈ 1.99 µM), respectively.

`Nc1ncccc1-c1cc(Cc2ccc(OCc3ccccc3)nc2)no1` [Example 12, 3-(3-(6-Benzyloxy-pyridin-3-ylmethyl)-isoxazol-5-yl)-pyridin-2-ylamine]: the “Mean Survival Days” value stood at 10.8 days in experiment [1] (2.5 mg/kg) and 14.0 days in experiment [1] (10 mg/kg). The MIC in experiment [2] and in experiment [3] was 0.1 mg/L (≈ 0.279 µM) throughout.

Source of the values: patent US8158657B2, “Heterocycles substituted pyridine derivatives and antifungal agent containing thereof” (Eisai R&D Management Co., Ltd., priority 2005, dated 2012).
